US12459997B2, “Compounds and methods targeting interleukin-19” (Eli Lilly and Company, priority 2018, dated 2025)

Key:
[1] = system: PsA patients; assay: PsA study in anti-IL-17 treatment groups: serum IL-19 and PASI; type: in vivo, human; conditions: for IL-19 (geometric mean) serum levels: subcutaneous
Excerpt: (§1) According to an exemplified embodiment, a sandwich ELISA assay for the sensitive detection of IL-19 is provided herein. According to an exemplified embodiment, a first IL-19 antibody (selected from Table 1, 2 or 3) is utilized as an IL-19 capture antibody and a second IL-19 antibody (selected from Table 1, 2 or 3) is utilized as an IL-19 reporter antibody. […] According to some embodiments, one milligram of the first IL-19 antibody (the capture antibody) is biotinylated using Pierce biotinylation kit (Cat #) and one milligram of the second IL-19 antibody (the reporter antibody) is labeled with ruthenium using MesoScale Discovery (MSD) kit for electrochemiluminescent (ECL) detection. According to such embodiment, labeled antibodies are evaluated using MALDI-TOF to ensure suitable labeling, and then diluted in 50% glycerol and stored at −20° C. prior to use.
(§2) Streptavidin-coated 96-well MSD plates are washed three times with TBST (Tris buffered saline containing 10 mmol/L Tris pH 7.40, 150 mmol/L NaCl with 1 mL Tween 20/L) and then blocked with TBS-T plus 1% BSA for 1 hour at room temperature. Plates are again washed and wells are then incubated with biotinylated IL-19 capture antibody (1 mg/L) for 1 hour. Thereafter, plates are again washed prior to patient sample testing.
(§3) During patient sample testing, a standard curve is generated using 50 μL of recombinant human IL-19 control standard (serially diluted IL-19 recombinant protein ranging from 100-0.0001 ng/L, and including a zero blank, in assay buffer of 50 mmol/L HEPES, pH 7.40, 150 mmol/L NaCl, 10 mL/L Triton X-100, 5 mmol/L EDTA, and 5 mmol/L EGTA). […] Patient samples (which, according to the present invention, may include blood, serum or plasma) are diluted 1:4 in assay buffer and added to respective wells. The plate is incubated overnight at 4° C. Following incubation, wells are aspirated and washed 3 times with TBST. Thereafter, 50 μL of ruthenium-labeled IL-19 detection antibody (0.5 mg/L) is added to the wells for a 1-hour incubation at room temperature. Following incubation, wells are aspirated and washed 3 times with TBST. Thereafter, 150 μl of 2×MSD read buffer is added. Ruthenium electrochemiluminescence in the wells is detected using a MSD Sector 6000 plate reader. Data is analyzed and IL-19 MSD immunoassay calibration curve fitting is performed using MesoScale Discovery software. SAS® software version 9.4 (PROC MIXED) is used for assessing treatment effects on IL-19 levels using a mixed effects model with an unstructured covariance matrix and log10 transformed IL-19 concentrations (SAS. Version 9.4 for UNIX; SAS Institute Inc.: Cary, N.C., 2016). Statistical analysis is generated with the ggplot and pROC packages using R version 3.3.3 statistical computing environment (www.R-project.org, Vienna, Austria, 2017).
A study of IL-19 levels, in serum of 309 PsA patients treated with a therapeutic antibody targeting IL-17, ixekizumab, is performed. The study includes three treatment groups: (i.) anti-IL-17 treatment group, administered ixekizumab 160 mg at baseline followed by an 80 mg dose administered every two weeks thereafter for 12 weeks (n=103); (ii.) anti-IL-17 treatment group, administered ixekizumab 160 mg at baseline followed by an 80 mg dose administered every four weeks thereafter for 12 weeks (n=107); or (iii.) placebo (n=105). Administration of all treatment doses is subcutaneous. […] Serum IL-19 concentration levels are presented in Table 21; week 4 and 12 PASI prognostic values showing correlations of IL-19 serum levels and PASI in patients (21 ng/L, indicates the upper limit of the normal range of IL-19 in healthy subjects) are presented in Tables 22 and 23, respectively.

[2] = system: Ps0 patients; assay: Ps0 study in anti-IL-17 treatment groups: serum IL-19 and PASI; type: in vivo, human; conditions: for number of patients achieving at least PASI 75: title: week 16, head: Week 2
Excerpt: as §1, §2, §3
The study includes five treatment group doses of: 10 mg (n=24), 25 mg (n=23), 75 mg (n=26), or 150 mg (n=28) of ixekizumab or placebo (n=24). Administration of all treatment doses is subcutaneous, and doses are administered starting at week 0 and every 2 weeks thereafter up to week 16 (inclusive).

[3] = system: Ps0 patients; conditions: cited from earlier work
[4] = Q2W, IL-19 at week 4 and PASI at week 12
[5] = Q2W, IL-19 at week 12 and PASI at week 12
[6] = Q4W, IL-19 at week 4 and PASI at week 12
[7] = Q4W, IL-19 at week 12 and PASI at week 12
[8] = 10 mg subcutaneous every 2 weeks, week 16
[9] = 25 mg subcutaneous every 2 weeks, week 16
[10] = 75 mg subcutaneous every 2 weeks, week 16
[11] = 150 mg subcutaneous every 2 weeks, week 16

**Q.** Which “IL-19 (geometric mean) serum levels” value ([1]; Q2W: 160 mg at baseline, then 80 mg every two weeks, Week 0 (baseline)) does the source give for ixekizumab here?
**A.** 23.0 pg/mL

**Q.** What about the “IL-19 (geometric mean) serum levels” value ([1]; Q2W: 160 mg at baseline, then 80 mg every two weeks, Week 4) of the same substance?
**A.** 6.0 pg/mL

**Q.** What about the “IL-19 (geometric mean) serum levels” value ([1]; Q2W: 160 mg at baseline, then 80 mg every two weeks, Week 12) of the same substance?
**A.** 6.1 pg/mL

**Q.** What about the “% of patients with serum IL-19 concentration ≤ 21 pg/mL” value (shortened to “% of patients”) ([1]; Q2W, IL-19 at week 4) of the same substance?
**A.** 97.5% (79/81)

**Q.** And the “% patients with serum IL-19 concentration ≤ 21 pg/mL achieving at least PASI 75” value [1, 4]?
**A.** 72.2% (57/79)

**Q.** And the “% patients with serum IL-19 concentration ≤ 21 pg/mL not achieving at least PASI 75” value [1, 4]?
**A.** 27.8% (22/79)

**Q.** What about the “% of patients” value ([1]; Q2W, IL-19 at week 12) of the same substance?
**A.** 96.7% (87/90)

**Q.** And the “% patients with serum IL-19 concentration ≤ 21 pg/mL achieving at least PASI 75” value [1, 5]?
**A.** 73.1% (57/78)

**Q.** What about the “% patients with serum IL-19 concentration ≤ 21 pg/mL not achieving at least PASI 75” value [1, 5] of the same substance?
**A.** 26.9% (21/78)

**Q.** What about the “IL-19 (geometric mean) serum levels” value ([1]; Q4W: 160 mg at baseline, then 80 mg every four weeks, Week 0 (baseline)) of the same substance?
**A.** 31.3 pg/mL

**Q.** And the “IL-19 (geometric mean) serum levels” value ([1]; Q4W: 160 mg at baseline, then 80 mg every four weeks, Week 4)?
**A.** 7.6 pg/mL

**Q.** And the “IL-19 (geometric mean) serum levels” value ([1]; Q4W: 160 mg at baseline, then 80 mg every four weeks, Week 12)?
**A.** 7.3 pg/mL

**Q.** What about the “% of patients” value ([1]; Q4W, IL-19 at week 4) of the same substance?
**A.** 90.8% (79/87)

**Q.** And the “% patients with serum IL-19 concentration ≤ 21 pg/mL achieving at least PASI 75” value [1, 6]?
**A.** 73.4% (58/79)

**Q.** And the “% patients with serum IL-19 concentration ≤ 21 pg/mL not achieving at least PASI 75” value [1, 6]?
**A.** 26.6% (21/79)

**Q.** And the “% of patients” value ([1]; Q4W, IL-19 at week 12)?
**A.** 93.5% (87/93)

**Q.** And the “% patients with serum IL-19 concentration ≤ 21 pg/mL achieving at least PASI 75” value [1, 7]?
**A.** 74.1% (60/81)

**Q.** What about the “% patients with serum IL-19 concentration ≤ 21 pg/mL not achieving at least PASI 75” value [1, 7] of the same substance?
**A.** 25.9% (21/81)

**Q.** And the “change of serum IL-19 in words” value ([1]; both ixekizumab treatment groups, sustained over the 12 week treatment)?
**A.** lowering of IL-19 to near normal levels after 4 weeks

**Q.** What about the “IL-19 serum levels (geometric mean)” value ([2]; 10 mg subcutaneous every 2 weeks, Week 0 (baseline)) of the same substance?
**A.** 111.6 pg/mL

**Q.** And the “IL-19 serum levels (geometric mean)” value ([2]; 10 mg subcutaneous every 2 weeks, Week 2)?
**A.** 45.3 pg/mL

**Q.** And the “number of patients achieving at least PASI 75” value (“number of patients achieving” below) ([2]; 10 mg subcutaneous every 2 weeks, n = 19)?
**A.** 5

**Q.** And the “% of patients” value [2, 8]?
**A.** 42.1% (8/19)

**Q.** What about the “% patients with serum IL-19 concentration ≤ 21 pg/mL achieving at least PASI 75” value [2, 8] of the same substance?
**A.** 62.5% (5/8)

**Q.** And the “% patients with serum IL-19 concentration ≤ 21 pg/mL not achieving at least PASI 75” value [2, 8]?
**A.** 37.5% (3/8)^

**Q.** What about the “IL-19 serum levels (geometric mean)” value [2, 8] of the same substance?
**A.** 57.3 pg/mL

**Q.** And the “IL-19 serum levels (geometric mean)” value ([2]; 25 mg subcutaneous every 2 weeks, Week 0 (baseline))?
**A.** 89.0 pg/mL

**Q.** What about the “IL-19 serum levels (geometric mean)” value ([2]; 25 mg subcutaneous every 2 weeks, Week 2) of the same substance?
**A.** 22.3 pg/mL

**Q.** What about the “number of patients achieving” value ([2]; 25 mg subcutaneous every 2 weeks, n = 20) of the same substance?
**A.** 16

**Q.** And the “% of patients” value [2, 9]?
**A.** 70% (14/20)

**Q.** What about the “% patients with serum IL-19 concentration ≤ 21 pg/mL achieving at least PASI 75” value [2, 9] of the same substance?
**A.** 92.9% (13/14)

**Q.** And the “% patients with serum IL-19 concentration ≤ 21 pg/mL not achieving at least PASI 75” value [2, 9]?
**A.** 7.1% (1/14)

**Q.** And the “IL-19 serum levels (geometric mean)” value [2, 9]?
**A.** 13.6 pg/mL

**Q.** What about the “IL-19 serum levels (geometric mean)” value ([2]; 75 mg subcutaneous every 2 weeks, Week 0 (baseline)) of the same substance?
**A.** 86.7 pg/mL

**Q.** What about the “IL-19 serum levels (geometric mean)” value ([2]; 75 mg subcutaneous every 2 weeks, Week 2) of the same substance?
**A.** 11.6 pg/mL

**Q.** And the “number of patients achieving” value ([2]; 75 mg subcutaneous every 2 weeks, n = 24)?
**A.** 21

**Q.** And the “% of patients” value [2, 10]?
**A.** 91.7% (22/24)^

**Q.** And the “% patients with serum IL-19 concentration ≤ 21 pg/mL achieving at least PASI 75” value [2, 10]?
**A.** 86.4% (19/22)

**Q.** What about the “% patients with serum IL-19 concentration ≤ 21 pg/mL not achieving at least PASI 75” value [2, 10] of the same substance?
**A.** 13.6% (3/22)

**Q.** And the “IL-19 serum levels (geometric mean)” value [2, 10]?
**A.** 9.4 pg/mL

**Q.** And the “IL-19 serum levels (geometric mean)” value ([2]; 150 mg subcutaneous every 2 weeks, Week 0 (baseline))?
**A.** 87.1 pg/mL

**Q.** What about the “IL-19 serum levels (geometric mean)” value ([2]; 150 mg subcutaneous every 2 weeks, Week 2) of the same substance?
**A.** 13.9 pg/mL

**Q.** And the “number of patients achieving” value ([2]; 150 mg subcutaneous every 2 weeks, n = 24)?
**A.** 22

**Q.** What about the “% of patients” value [2, 11] of the same substance?
**A.** 92% (23/25)

**Q.** What about the “% patients with serum IL-19 concentration ≤ 21 pg/mL achieving at least PASI 75” value [2, 11] of the same substance?
**A.** 95% (19/20)

**Q.** What about the “% patients with serum IL-19 concentration ≤ 21 pg/mL not achieving at least PASI 75” value [2, 11] of the same substance?
**A.** 5% (1/20)

**Q.** What about the “IL-19 serum levels (geometric mean)” value [2, 11] of the same substance?
**A.** 11.9 pg/mL

**Q.** And the “patients achieved a 75% reduction in PASI score (PASI 75)” value [3]?
**A.** 90%
